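All cell lines were grown in 96-well plates and treated with compound for 48 hours. GI50 = concentration required for 50% inhibition of growth.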 Calls of active or inactive are those of the source. Rule as the data show it: active = GI50 up to about 1.1 µM and inactive = higher. A value given as a limit tells only on which side of the number the result lay.

These results are taken from ChEMBL document CHEMBL1201862, “PubChem BioAssay data set” (2004).

Test systems include COLO 205; A498; NCI-H23; UO-31; OVCAR-8; PC-3; SK-MEL-2; Hs-578T; SF-268; SF-539; HOP-92; UACC-62; SW-620; A549; KM12; HCC 2998; NCI-H226; HL-60; NCI/ADR-RES; MCF7.
Common to all, as to test: NCI tumour cell line growth inhibition, 48 h

Regarding `COc1ccc(/N=C/C=C/Nc2ccc(OC)cc2)cc1`, the GI50 in the experiment on COLO 205 is 3.99 µM (inactive); in the experiment on A498, 14 µM (inactive); with NCI-H23, 19.6 µM (inactive); in the experiment with UO-31 it was 5.64 µM (inactive); in the experiment with OVCAR-8, 3.3 µM (inactive); with PC-3, 12 µM (inactive). Further, the GI50 in the experiment on SK-MEL-2 is 16.4 µM (inactive); in the experiment on Hs-578T, 17.5 µM (inactive); in the experiment on SF-268, 7.43 µM (inactive); in the experiment with SF-539, 9.64 µM (inactive); with HOP-92 it was 15.3 µM (inactive); in the experiment with UACC-62, 13.7 µM (inactive). For the same compound, the GI50 with SW-620 was 2.69 µM (inactive); in the experiment on A549, 12.1 µM (inactive); in the experiment with KM12, 4.54 µM (inactive); with HCC 2998, 8.45 µM (inactive); in the experiment with NCI-H226 it was 17.5 µM (inactive); in the experiment on HL-60, 2.87 µM (inactive). For the same compound, the figures for the GI50 with NCI/ADR-RES and with MCF7 were 6.95 µM (inactive) and 4.75 µM (inactive), respectively.

As to `c1ccc2/c3[nH]/c(c2c1)=N\c1ccc(cc1)-c1nc2ccc(cc2o1)/N=c1/[nH]/c(c2ccccc12)=N/c1ccc2nc(oc2c1)-c1ccc(cc1)\N=3`, the GI50 in the experiment with COLO 205 was 11.6 µM (inactive); with A498, 33.5 µM (inactive); in the experiment with NCI-H23, 43.4 µM (inactive); with UO-31 it was 15.9 µM (inactive); with OVCAR-8, > 100 µM (inactive); in the experiment on PC-3, 29.9 µM (inactive). Besides, the GI50 in the experiment on SK-MEL-2 was 38.8 µM (inactive); in the experiment on Hs-578T, > 100 µM (inactive); in the experiment with SF-268 it was 15.3 µM (inactive); in the experiment on SF-539, 77.1 µM (inactive); with HOP-92, 37.3 µM (inactive); with UACC-62, 51.4 µM (inactive). Moreover, the GI50 in the experiment with SW-620 was 26.5 µM (inactive); with A549, 26.8 µM (inactive); in the experiment with KM12, 35.1 µM (inactive); in the experiment on HCC 2998 it was 17.1 µM (inactive); in the experiment with NCI-H226, 68.2 µM (inactive); in the experiment with HL-60, 0.422 µM (active). In addition, the values for the GI50 in the experiment with NCI/ADR-RES and with MCF7 were 20.5 µM (inactive) and 37.8 µM (inactive), respectively.

Take `CCN(CC)CCCNc1c2cc(OC)ccc2nc2cccc([N+](=O)[O-])c12`: the GI50 with COLO 205 was 0.0238 µM (active); with A498, 0.0127 µM (active); with NCI-H23, 0.0746 µM (active); in the experiment with UO-31 it was 0.0402 µM (active); in the experiment on OVCAR-8 it was 0.0904 µM (active); with PC-3, 0.0543 µM (active). Further, the GI50 with SK-MEL-2 is 0.101 µM (active); with Hs-578T, 0.138 µM (active); in the experiment on SF-268, 0.0841 µM (active); in the experiment on SF-539, 0.141 µM (active); in the experiment on HOP-92 it was 0.0484 µM (active); in the experiment on UACC-62, 0.166 µM (active). Besides, the GI50 was 0.0352 µM (active) in the experiment with SW-620; 0.065 µM (active) in the experiment on A549; 0.11 µM (active) with KM12; 0.0655 µM (active) in the experiment with HCC 2998; 0.204 µM (active) in the experiment with NCI-H226; 0.158 µM (active) with HL-60. Also, the results for the GI50 in the experiment on NCI/ADR-RES and in the experiment on MCF7 were 0.274 µM (active) and 0.0333 µM (active), respectively.

On to `Cc1nc2ccccc2n1CCc1nc2ccccc2s1`, for which the GI50 was 26.9 µM (inactive) in the experiment on COLO 205; 14.8 µM (inactive) in the experiment on A498; 30 µM (inactive) in the experiment on NCI-H23; 1.93 µM (inactive) in the experiment with UO-31; 41.3 µM (inactive) with OVCAR-8; 39.9 µM (inactive) in the experiment with PC-3. Besides, the GI50 was 86.9 µM (inactive) with SK-MEL-2; 53.6 µM (inactive) in the experiment on Hs-578T; 53.2 µM (inactive) in the experiment on SF-268; 35.2 µM (inactive) in the experiment with SF-539; 32.9 µM (inactive) in the experiment with HOP-92; 60.8 µM (inactive) in the experiment with UACC-62. In addition, the GI50 in the experiment with SW-620 was 68.9 µM (inactive); in the experiment with A549, 23.8 µM (inactive); in the experiment on KM12 it was 56.1 µM (inactive); with HCC 2998, 38.3 µM (inactive); in the experiment with NCI-H226 it was 0.857 µM (active); with HL-60, 14.3 µM (inactive). Moreover, the GI50 in the experiment with NCI/ADR-RES is 40.6 µM (inactive); in the experiment with MCF7, 16.6 µM (inactive).

With `CC/C(Cl)=N\OC(=O)Nc1ccc(F)c(Cl)c1`, the GI50 in the experiment on COLO 205 was 2.82 µM (inactive); in the experiment with A498, 16.2 µM (inactive); with NCI-H23, 21.2 µM (inactive); in the experiment on UO-31 it was 18.3 µM (inactive); in the experiment with OVCAR-8 it was 17.7 µM (inactive); in the experiment with PC-3, 16 µM (inactive). Moreover, the GI50 is 17.3 µM (inactive) in the experiment with SK-MEL-2; 39.4 µM (inactive) with Hs-578T; 15.7 µM (inactive) in the experiment with SF-268; 19.8 µM (inactive) with SF-539; 4.38 µM (inactive) in the experiment with HOP-92; 20.6 µM (inactive) with UACC-62. Further, the GI50 in the experiment with SW-620 is 2.55 µM (inactive); in the experiment on A549, 21.3 µM (inactive); with KM12, 17.2 µM (inactive); in the experiment with HCC 2998, 18.7 µM (inactive); in the experiment with NCI-H226 it was 24.4 µM (inactive); in the experiment on HL-60, 1.83 µM (inactive). The GI50 with NCI/ADR-RES was 19.5 µM (inactive); in the experiment on MCF7 it was 7.1 µM (inactive).

In the case of `CCOP(=O)(OCC)C(=C1C=C(C(C)(C)C)C(=O)C(C(C)(C)C)=C1)P(=O)(OCC)OCC`, the GI50 in the experiment with COLO 205 is 1.98 µM (inactive); in the experiment on A498, > 10 µM (inactive); in the experiment with NCI-H23 it was > 10 µM (inactive); in the experiment on UO-31, > 10 µM (inactive); in the experiment on OVCAR-8 it was > 10 µM (inactive); with PC-3, > 10 µM (inactive). The GI50 with SK-MEL-2 is > 10 µM (inactive); in the experiment with Hs-578T, > 10 µM (inactive); with SF-268, > 10 µM (inactive); in the experiment with SF-539, > 10 µM (inactive); in the experiment on HOP-92, 2.39 µM (inactive); in the experiment with UACC-62 it was > 10 µM (inactive). Also, the GI50 in the experiment with SW-620 was 1.89 µM (inactive); in the experiment on A549, > 10 µM (inactive); in the experiment with KM12, > 10 µM (inactive); in the experiment on HCC 2998 it was > 10 µM (inactive); in the experiment on NCI-H226 it was > 10 µM (inactive); with HL-60 it was 3.53 µM (inactive). Moreover, the GI50 in the experiment with NCI/ADR-RES was > 10 µM (inactive); in the experiment on MCF7, > 6.84 µM (inactive).

With `CC(C)=CCC[C@](C)(O[C@@H]1O[C@H](CO)[C@@H](O)[C@H](O)[C@H]1O)[C@H]1CC[C@]2(C)[C@@H]1[C@H](O)C[C@@H]1[C@@]3(C)CC[C@H](O)C(C)(C)[C@@H]3[C@@H](O[C@@H]3O[C@H](CO)[C@@H](O)[C@H](O)[C@H]3O[C@@H]3O[C@@H](C)[C@H](O)[C@@H](O)[C@H]3O)C[C@]12C.CC(C)=CCC[C@](C)(O[C@@H]1O[C@H](CO)[C@@H](O)[C@H](O)[C@H]1O)[C@H]1CC[C@]2(C)[C@@H]1[C@H](O)C[C@@H]1[C@@]3(C)CC[C@H](O)C(C)(C)[C@@H]3[C@@H](O[C@@H]3O[C@H](CO)[C@@H](O)[C@H](O)[C@H]3O[C@@H]3O[C@H](CO)[C@@H](O)[C@H](O)[C@H]3O)C[C@]12C`, the GI50 in the experiment with COLO 205 is > 75 µM (inactive); with A498, > 75 µM (inactive); in the experiment with NCI-H23, > 75 µM (inactive); in the experiment with UO-31 it was > 75 µM (inactive); in the experiment on OVCAR-8, 34.9 µM (inactive); with PC-3, > 75 µM (inactive). Further, the GI50 in the experiment on SK-MEL-2 was > 75 µM (inactive); in the experiment with Hs-578T it was 51.3 µM (inactive); with SF-268, 54.3 µM (inactive); in the experiment with SF-539 it was > 75 µM (inactive); in the experiment with HOP-92, > 75 µM (inactive); in the experiment on UACC-62, > 75 µM (inactive). The GI50 with SW-620, in the experiment on A549, with KM12, with HCC 2998, with NCI-H226 and with HL-60 was > 75 µM (inactive) throughout. Moreover, the GI50 with NCI/ADR-RES and in the experiment on MCF7 was > 75 µM (inactive) each time.

In the case of `Oc1cc(O)c2c(c1)OC(c1ccc(O)c(O)c1)C(OC1(c3cc(O)c(O)c(O)c3)Oc3cc(O)cc(O)c3C(O)C1O)C2` (stereo not given), the GI50 is 31.8 µM (inactive) in the experiment with COLO 205; > 34.1 µM (inactive) in the experiment on A498; 20.9 µM (inactive) in the experiment on NCI-H23; 18 µM (inactive) in the experiment on UO-31; 26 µM (inactive) in the experiment with OVCAR-8; 49.7 µM (inactive) with PC-3. The GI50 was 24.5 µM (inactive) in the experiment on SK-MEL-2; 36.6 µM (inactive) in the experiment with Hs-578T; 25.9 µM (inactive) in the experiment on SF-268; 32.1 µM (inactive) with SF-539; 29.6 µM (inactive) in the experiment on HOP-92; 37.6 µM (inactive) in the experiment with UACC-62. The GI50 in the experiment with SW-620 was 24.8 µM (inactive); with A549, 27.7 µM (inactive); in the experiment with KM12 it was 26.1 µM (inactive); with HCC 2998 it was 62.8 µM (inactive); with NCI-H226 it was 21.1 µM (inactive); with HL-60, 21.7 µM (inactive). In addition, the values for the GI50 in the experiment on NCI/ADR-RES and with MCF7 were 30.2 µM (inactive) and 19.6 µM (inactive), respectively.

For `CCOC(=O)C1=NN(c2ccc(C)cc2)C2(c3ccccc3)C=C(c3ccccc3)N(C)CCN12` (stereo not given), the GI50 in the experiment on COLO 205, in the experiment with A498, in the experiment with NCI-H23, in the experiment on UO-31, in the experiment on OVCAR-8 and with PC-3 was > 100 µM (inactive) in each case. The GI50 with SK-MEL-2, with Hs-578T, with SF-268, with SF-539, with HOP-92 and in the experiment with UACC-62 was > 100 µM (inactive) throughout. The GI50 in the experiment with SW-620 was > 100 µM (inactive); in the experiment with A549, > 100 µM (inactive); with KM12 it was 48.5 µM (inactive); in the experiment with HCC 2998, 82.4 µM (inactive); in the experiment on NCI-H226, > 100 µM (inactive); in the experiment on HL-60 it was 30.7 µM (inactive). The GI50 in the experiment on NCI/ADR-RES and in the experiment on MCF7 was > 100 µM (inactive) each time.
